In patent US8278338B2 (priority 2004, dated 2012):
Where two headings read alike, the source gives them in different places.

Legend:
5-HT reuptake = 5-HT reuptake (Rattus norvegicus, UniProt P31652); assay: biochemical
Description: In order to be able to carry out these in vitro studies, synaptosomes were freshly isolated from areas of rat brain. […] For NA reuptake, these vesicular particles were isolated from the hypothalamus of male rat brains, and for 5HT reuptake, they were isolated from the medulla+pons region.
The IC50 values were obtained with the aid of the “Figure P” computer program (Version 6.0, Biosoft, Cambridge, England). […] The “Ligand” computer program (Version 4, Biosoft, England) was used to show KD values.

rat = assay: Formalin test in the rat (phase 2, chronic pain component); format: in vivo
Procedure: (§1) The formalin test (Dubuisson, D. and Dennis, S. G., 1977, Pain, 4, 161-174) represents a model for acute and chronic pain. By means of a single formalin injection into the dorsal side of a rear paw, a biphase nociceptive reaction was induced in freely mobile test animals; the reaction was assessed by observing three behaviour patterns which are clearly distinguishable from one another. The reaction is two-phase: phase 1=immediate reaction (duration up to 10 minutes; shaking of the paw, licking), phase 2=late reaction (after a rest phase; likewise shaking of the paw, licking; duration up to 60 minutes). The first phase reflects a direct stimulation of the peripheral nocisensors with a high spinal nociceptive input or glutamate release (acute pain phase); the second phase reflects a spinal and peripheral hypersensitisation (chronic pain phase). In the studies presented here, the chronic pain component (phase 2) was evaluated.
Formalin was administered subcutaneously in a volume of 50 μl and a concentration of 5% into the dorsal side of the right rear paw of each animal. The specific behavioural changes, such as lifting and shaking of the paw, weight shifting of the animal and biting and licking reactions, were observed and recorded over an observation period of from 21 to 27 minutes after the formalin injection. The various behaviours were combined to give the so-called pain rate (PR) which, based on 3-minute intervals, represents the calculation of a mean nociceptive reaction. The PR was calculated on the basis of a numerical weighting (=in each case factor 1, 2, 3) of the observed behaviours (corresponding to behaviour score 1, 2, 3) and was calculated using the following formula:
The size of the group was 10 animals (n=10).
(§2) On the basis of the PR calculations, the activity of the substance was determined in percent as the change relative to a control. The ED50 was determined by means of regression analysis.

NA reuptake = target: T1, NA reuptake (Rattus norvegicus, UniProt Q63380); assay: Inhibition of NA reuptake in rat brain synaptosomes (hypothalamus, P2 fraction); format: biochemical; details: for inhibition at 10 µM: 10 μmol./l
T1 construct: isolated from the hypothalamus of male rat brains; from tissue; host or cells: rat brain synaptosomes (P2 fraction), hypothalamus of male rats
Procedure: In order to be able to carry out these in vitro studies, synaptosomes were freshly isolated from areas of rat brain. A so-called “P2” fraction was used in each case, which was prepared exactly according to the procedure of Gray, E. G. and Whittaker, V. P. (1962, J. Anat. […], 79-88). For NA reuptake, these vesicular particles were isolated from the hypothalamus of male rat brains, and for 5HT reuptake, they were isolated from the medulla+pons region.
IC50 values were obtained thereby which can be converted into inhibitor constants (Ki) according to the “Cheng-Prusoff equation” (Cheng, Y. C. and Prusoff, W. H., 1973, Biochem. Pharmacol. 22, 3099-3108). The IC50 values were obtained with the aid of the “Figure P” computer program (Version 6.0, Biosoft, Cambridge, England). Km values were calculated according to Lineweaver, H. and Burk, D. (1934, J. Am. Chem. Soc. 56, 658-666). The “Ligand” computer program (Version 4, Biosoft, England) was used to show KD values.

human μ-opiate receptor = target: T2, human μ-opiate receptor (Homo sapiens, UniProt P35372); assay: Affinity for the human μ-opiate receptor, [3H]-naloxone displacement (SPA) on CHO-K1 receptor membrane preparation; format: binding; details: for μ-Opioid receptor affinity (% inhibition at 1 μmol./l): 1 μmol./l test substance
T2 construct: purchased Perkin Elmer, Zaventem, Belgium RB-HOM; host or cells: CHO-K1 cells
Procedure: The receptor affinity for the human μ-opiate receptor was determined in a homogeneous batch on microtitre plates. To that end, serial dilutions of the substances to be tested were incubated for 90 minutes at room temperature with a receptor membrane preparation (15-40 μg of protein/250 μl of incubation batch) of CHO-K1 cells, which express the human μ-opiate receptor (RB-HOM receptor membrane preparation from Perkin Elmer, Zaventem, Belgium), in the presence of 1 nmol./l of the radioactive ligand [^3H]-naloxone (NET719, Perkin Elmer, Zaventem, Belgium) and 1 mg of WGA-SPA beads (wheatgerm agglutinin SPA beads from Amersham/Pharmacia, Freiburg, Germany) in a total volume of 250 μl. The incubation buffer used was 50 mmol./l of Tris-HCl supplemented with 50 μM MgCl2 and 0.05% bovine serum albumin. In order to determine non-specific binding, 100 μmol./l of naloxone were additionally added. When the ninety-minute incubation time was complete, the microtitre plates were centrifuged off for 20 minutes at 1000 g and the radioactivity was measured in a β-counter (Microbeta-Trilux, PerkinElmer, Freiburg, Germany). The percentage displacement of the radioactive ligand from its binding to the human μ-opiate receptor at a concentration of the test substances of 1 μmol./l was determined and stated as the percentage inhibition of specific binding. […] Ki values for the test substances were obtained by conversion by means of the Cheng-Prusoff equation (Cheng and Prusoff 1973).

mouse = assay: Formalin test in the mouse (phase 2, chronic pain component); format: in vivo; details: for ED50: iv, read-out: Inhibition of the nociceptive behaviour versus control, ED50 value
Procedure: as §1
Formalin was administered subcutaneously in a volume of 20 μl and a concentration of 1% into the dorsal side of the right rear paw of each animal. The specific behavioural changes, such as lifting and shaking of the paw (score 3), were observed and recorded over an observation period of from 21 to 24 minutes after the formalin injection. The size of the group was 10 animals (n=10).
as §2

[1] = rat synaptosomes, Cheng-Prusoff
[2] = Cheng-Prusoff from IC50, [3H]-naloxone 1 nmol./l, read-out: μ-Opioid receptor affinity, Ki
[3] = inhibition of specific [3H]-naloxone binding

T1 sequence (Q63380 1-617): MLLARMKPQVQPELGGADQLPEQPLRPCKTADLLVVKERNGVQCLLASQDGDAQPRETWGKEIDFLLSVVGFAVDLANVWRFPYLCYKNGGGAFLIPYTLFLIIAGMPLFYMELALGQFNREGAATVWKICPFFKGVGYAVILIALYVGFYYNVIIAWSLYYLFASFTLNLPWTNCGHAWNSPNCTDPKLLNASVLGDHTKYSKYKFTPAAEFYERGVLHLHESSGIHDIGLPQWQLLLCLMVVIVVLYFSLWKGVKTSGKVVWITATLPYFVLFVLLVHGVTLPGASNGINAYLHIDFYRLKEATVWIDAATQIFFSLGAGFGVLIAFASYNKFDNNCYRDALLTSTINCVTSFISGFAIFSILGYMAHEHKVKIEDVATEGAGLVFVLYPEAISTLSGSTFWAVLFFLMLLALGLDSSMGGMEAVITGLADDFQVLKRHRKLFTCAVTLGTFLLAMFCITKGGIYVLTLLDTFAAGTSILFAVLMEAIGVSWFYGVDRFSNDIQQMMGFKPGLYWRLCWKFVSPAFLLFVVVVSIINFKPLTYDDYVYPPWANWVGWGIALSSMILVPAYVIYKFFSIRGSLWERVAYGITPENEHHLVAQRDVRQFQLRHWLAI
Chain of 5-HT reuptake (P31652 whole entry): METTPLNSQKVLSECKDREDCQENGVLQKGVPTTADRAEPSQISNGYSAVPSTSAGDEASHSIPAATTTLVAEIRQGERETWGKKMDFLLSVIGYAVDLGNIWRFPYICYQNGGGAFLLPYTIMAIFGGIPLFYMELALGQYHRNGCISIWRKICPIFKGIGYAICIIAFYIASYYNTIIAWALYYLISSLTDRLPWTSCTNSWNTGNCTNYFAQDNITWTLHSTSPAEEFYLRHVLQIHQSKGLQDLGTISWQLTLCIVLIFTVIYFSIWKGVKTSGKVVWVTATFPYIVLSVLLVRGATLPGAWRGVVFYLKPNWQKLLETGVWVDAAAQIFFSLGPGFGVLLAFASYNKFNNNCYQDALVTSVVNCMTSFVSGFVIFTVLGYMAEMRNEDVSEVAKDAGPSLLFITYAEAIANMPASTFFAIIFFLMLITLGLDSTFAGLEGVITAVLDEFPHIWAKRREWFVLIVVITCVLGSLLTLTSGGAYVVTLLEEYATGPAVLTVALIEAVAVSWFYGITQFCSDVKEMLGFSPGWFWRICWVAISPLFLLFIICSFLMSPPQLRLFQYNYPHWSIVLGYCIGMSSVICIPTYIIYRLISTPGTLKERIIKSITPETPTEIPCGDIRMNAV
T2 sequence (P35372 whole entry): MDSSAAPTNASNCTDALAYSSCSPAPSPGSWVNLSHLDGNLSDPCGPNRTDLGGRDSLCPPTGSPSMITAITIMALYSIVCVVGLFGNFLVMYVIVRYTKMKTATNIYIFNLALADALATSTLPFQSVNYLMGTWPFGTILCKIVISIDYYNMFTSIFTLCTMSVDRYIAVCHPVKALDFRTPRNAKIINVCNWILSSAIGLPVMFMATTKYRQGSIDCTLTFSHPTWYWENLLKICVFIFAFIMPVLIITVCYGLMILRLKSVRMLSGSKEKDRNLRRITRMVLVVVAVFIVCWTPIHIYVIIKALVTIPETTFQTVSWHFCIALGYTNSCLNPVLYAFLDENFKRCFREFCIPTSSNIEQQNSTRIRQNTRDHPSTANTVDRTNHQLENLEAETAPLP

With COc1ccc2c(c1)CC(CN(C)C)C2(O)c1cccnc1 (stereo not drawn) [Example 5, 2-dimethylaminomethyl-5-methoxy-1-pyridin-3-yl-indan-1-ol] the Ki (5-HT reuptake; [1]) was 170 nM, the “Inhibition of the nociceptive behaviour versus control (% inhibition)” value (shortened to “Inhibition … (% inhibition)”) (rat; 21.5 mg/kg i.v., phase 2) was −43.0% and the inhibition at 10 µM (NA reuptake) was 29%. It also gave an inhibition at 1 µM (human μ-opiate receptor; 1.5 h, read-out: μ-Opioid receptor affinity (% inhibition at 1 μmol./l), 1 μmol./l test substance, inhibition of specific [3H]-naloxone binding) of 49%.
With CN(C)CC1=C(c2cccnc2)c2ccc(O)cc2C1 [Example 7, 2-dimethylaminomethyl-1-pyridin-3-yl-3H-inden-5-ol] the Ki (5-HT reuptake) was 25 nM, the ED50 (rat; iv, phase 2, regression analysis, read-out: Inhibition of the nociceptive behaviour versus control, ED50 value) was 2.93 mg/kg and the inhibition at 10 µM (NA reuptake) was 59%. It also gave a Ki (human μ-opiate receptor; [2]) of 380 nM.
Work on CN(C)CC1=C(c2cccnc2)c2ccccc2C1 [Example 3, dimethyl-(3-pyridin-3-yl-1H-inden-2-ylmethyl)-amine] yielded an ED50 (mouse; phase 2, regression analysis) of 3.32 mg/kg, a Ki (5-HT reuptake; [1]) of 13 nM and an inhibition at 10 µM (NA reuptake) of 30%. The Ki (human μ-opiate receptor) was 240 nM.
For CN(C)CC1CCSc2ccccc2C1(O)c1cccnc1 (stereo not drawn) [Example 14, 4-dimethylaminomethyl-5-pyridin-3-yl-2,3,4,5-tetrahydro-benzo[b]thiepin-5-ol], the “Inhibition of 5-HT reuptake (% inhibition at 10 μmol./l)” value (5-HT reuptake; rat synaptosomes) was 44%, the “Inhibition … (% inhibition)” value (rat; 21.5 mg/kg i.v., phase 2, 21.5 mg/kg) was −53.2% and the “Inhibition of NA reuptake (% inhibition at 10 μmol./l)” value (NA reuptake) was 54%. The “μ-Opioid receptor affinity (% inhibition at 1 μmol./l)” value (human μ-opiate receptor; [3]) was −14%.
For COc1ccc(C(CN(C)C)C2(O)CCCCC2)cc1 (stereo not drawn) [Venlafaxin, venlafaxin, reference compound], the “Inhibition of the nociceptive behaviour versus control, ED50 value” (mouse; i.v., phase 2, regression analysis) was 2.60 mg/kg and the “μ-Opioid receptor affinity (% inhibition at 1 μmol./l)” value (human μ-opiate receptor; [3]) was −1%.
In the case of CN(C)CC1Cc2ccccc2C1(O)c1cccnc1 (single isomer, unassigned) [Example 2, 2-dimethylaminomethyl-1-pyridin-3-yl-indan-1-ol], the “Inhibition of 5-HT reuptake (% inhibition at 10 μmol./l)” value (5-HT reuptake; rat synaptosomes) is reported as 89%, the “Inhibition … (% inhibition)” value (rat; 46.4 mg/kg i.v., phase 2) is reported as −80.6% and the “Inhibition of NA reuptake (% inhibition at 10 μmol./l)” value (NA reuptake) is reported as 43%. For the same compound, the “μ-Opioid receptor affinity (% inhibition at 1 μmol./l)” value (human μ-opiate receptor; [3]) was 60%.
Compound COc1ccc2c(c1)CC(CN(C)C)=C2c1cccnc1 [Example 6, (6-methoxy-3-pyridin-3-yl-1H-inden-2-ylmethyl)-dimethyl-amine] has an ED50 (mouse; phase 2, regression analysis) of 1.64 mg/kg, a Ki (5-HT reuptake; [1]) of 28 nM and an inhibition at 10 µM (NA reuptake) of 31%. It also gave a Ki (human μ-opiate receptor) of 150 nM.
With CN(C)CC1=C(c2cccnc2)c2ccccc2CCC1 [Example 12, dimethyl-(5-pyridin-3-yl-8,9-dihydro-7H-benzocyclohepten-6-ylmethyl)-amine] the “Inhibition … (% inhibition)” value (mouse; 14.7 mg/kg i.v., phase 2) was −45.8%, the Ki (5-HT reuptake; [1]) was 120 nM and the inhibition at 10 µM (NA reuptake) was 20%. It also gave a Ki (human μ-opiate receptor; [2]) of 380 nM.
